The results in this text go back to patent US8829014B2, “Thiazole and thiophene analogues, and their use in treating autoimmune diseases and cancers” (Board of Supervisors of Louisiana State University and …, priority 2006, dated 2014).

The test system of experiment [1] is AP-1. Description: AP-1 inhibitor screen: basal AP-1-dependent luciferase expression in HEK/AP-1 cell line. The format is cell-based. The note with it: AP1; 1 uM; determined as described in Example 398. From the text: (§1) Development of NF-κB and AP-1 Screens: Two HEK293 cell lines were purchased from Panomics. One cell line was stably transfected with a plasmid in which luciferase expression is regulated by six copies of the NF-κB transcriptional element (5′-[…]-3′); and the other cell line was stably transfected with a plasmid in which luciferase expression is regulated by three copies of the AP-1 transcriptional element (TGACTAA). To test the biological activity of the promoters, the HEK/NF-κB cell line was stimulated with TNF-α (20 ng/ml) for 24 hours, and the HEK/AP-1 cell line was stimulated with PMA (10 ng/ml) for 24 hours.
HEK cells were stably transfected with a plasmid expressing luciferase under the control of the AP-1 promoter. The transfected cells were plated on a 96-well plate for 24 hr. Then 1.0 μM of each compound in DMSO (0.3%) was added to triplicate wells and incubated for 48 hr. DMSO (0.3%) was added to one set of triplicate wells as a control. Luciferase activity was determined using Promega's Brite-Glo kit, and the mean for each sample was normalized to that for DMSO.
Screening was carried out as described above, monitoring the compounds' effects on basal AP-1-dependent luciferase expression. Each dose-response experiment was carried out in triplicate and repeated between two and four times.

Experiment [2] has as its system NF-κB. The experiment in a line: NF-κB inhibitor screen: basal NF-κB-dependent luciferase expression in HEK/NF-κB cell line. The format is cell-based. The note with it: 1 uM; determined as described in Example 398; read-out: NFkB inhibition @ 1 uM.
Excerpt: as §1, with “hours. […] In addition, a pyrimidine carboxyimide that had previously been shown (ref. 58) to be an inhibitor of transcription mediated by NF-κB and AP-1 reduced luciferase activity by approximately 40% in each of the NF-κB and AP-1 cell lines.” for “hours.”
The above two assays analyzed the effects of the compounds on post-transcriptional gene regulation, which is known to play a key role in cancer and inflammation. By contrast, the NF-κB assay and the following assay (AP-1) test whether the compounds act at the transcriptional level. Thirty-nine representative compounds were screened in an HEK/NF-κB cell line. HEK cells were stably transfected with a plasmid expressing luciferase under the control of the NF-κB promoter. These transfected cells were plated on a 96-well plate. As above, initial screening was carried out at 1.0 μM by adding compound in DMSO (0.3%) twenty-four hours after plating. Each compound was added to each of triplicate wells. DMSO (0.3%) was added to one set of wells as a control. Luciferase activity was determined using Promega's Brite-Glo kit, and the mean for each sample was normalized to that for DMSO.
The fourteen representative compounds identified in the eIF4E screen as interesting (Numbered 2, 3, 4, 6, 8, 11, 15, 20, 21, 24, 25, 32, 33, and 35) were then tested for luciferase activity in a six-point dose response (10 nM, 33 nM, 100 nM, 330 nM, 1000 nM, and 3300 nM). Screening was carried out as described above by monitoring the effects of the compounds on basal NF-κB-dependent luciferase expression. Each dose was used out in triplicate, and repeated between two and four times. Results were normalized by the average expression level at the lowest concentration level, as described above.

Experiment [3] concerns NF-κB. Description: TNF-α-induced NF-κB-dependent luciferase expression in HEK cells. The format is cell-based. The following applies: luciferase in HEK/NF-κB cells, as described in Example 398; for inhibition at 1 µM: Homo sapiens, HEK293, 1 uM, read-out: NFkB inhibition @ 1 uM.
The subject of experiment [4] is carageenan-induced edema. The experiment in a line: Carrageenan-induced rat paw edema test (anti-inflammatory activity). The format is in vivo, Sprague-Dawley rats. The following applies: rat paw edema, 50 mg/kg, reading 3 hours after carrageenan, [(Control−Test)/Control]×100%; for inhibition in vivo at 50 mg/kg: Rattus norvegicus, po, 3 h, read-out: % Protection P. The method, boiled down: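 Edema was raised by sub-plantar injection of 1% carrageenan into the right hind paw, 1 h after dosing 18 h-fasted male/female Sprague-Dawley rats (150-250 g) with 50 mg/kg p.o. in 0.1% CMC. Swelling was measured by displacement 3 h later and expressed as % protection against saline control.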

The subject of experiment [5] is AP-1. Description: PMA-induced AP-1 luciferase expression in HEK cells. The format is cell-based. The following applies: luciferase in HEK/AP-1 cells, as described in Example 398; for inhibition at 1 µM: AP1, 1 uM.

In the case of `COc1ccc(-n2c(-c3sc(NC(=O)c4ccc(C)cc4)nc3-c3ccccc3)nc3ccccc3c2=O)cc1` [Example 223, 4-Methyl-N-[5-(4-oxo-3-(4-methoxyphenyl)-3,4-dihydroquinazolin-2-yl)-4-phenyl-thiazol-2-yl]-benzamide], the inhibition at 1 µM in experiment [1] is -28%; in experiment [2], -24%.

With `O=C(c1ccccn1)c1sc(N2CCN(C(=O)c3ccco3)CC2)nc1-c1ccccc1` [Example 390, {2-[4-(Furan-2-carbonyl)-piperazin-1-yl]-4-phenyl-thiazol-5-yl}-pyridin-2-yl-methanone], the inhibition at 1 µM in experiment [3] came to 0.47%; in experiment [5], 40.9%. Moreover, in experiment [4], the inhibition in vivo at 50 mg/kg turned out to be 17%.

Consider `Cc1ccc(C(=O)c2cc(-c3cccnc3)c(N3CCOCC3)s2)cc1` [Example 91, (5-Morpholin-4-yl-4-pyridin-3-yl-thiophene-2-yl)-p-tolyl-methanone], for which the values for the inhibition at 1 µM in experiment [3] and in experiment [5] were 1.28% and 49%, respectively. Further, the inhibition in vivo at 50 mg/kg in experiment [4] was found to be 25.3%.

On to `CC(=O)Nc1ccc(-c2cc(-c3nc4ccccc4c(=O)n3-c3cccc(C)c3)sc2N2CCOCC2)cc1` [Example 286, N-{4-[2-Morpholin-4-yl-5-(4-oxo-3-m-tolyl-3-,4-dihydro-quinazolin-2-yl)-thiophene-3-yl]-phenyl}-acetamide], for which the “NFkB inhibition @ 1 uM” value in experiment [3] was 35. In addition, the “% Protection P” value in experiment [4] was 52%. Also, in experiment [5], the “AP-1 inhibition @ 1 uM” value turned out to be 13.

For the compound `COc1ccc(Nc2nc(N)c(C(=O)c3ccc(Cl)cc3Cl)s2)cc1` [Example 346, ([4-Amino-2-(4-methoxy-phenylamino)-thiazol-5-yl]-(2,4-dichloro-phenyl)-methanone)], the inhibition at 1 µM in experiment [3] was -4.13%; in experiment [5], 64.6%. Further, the inhibition in vivo at 50 mg/kg in experiment [4] turned out to be 28.3%.

Regarding “Bis-[2-(2-benzoyl-amino)-4-benzayl-thiazole-5-yl]-methanone [Example 135]”, the “NFkB inhibition @ 1 uM” value in experiment [3] worked out at 39.98. For the same compound, in experiment [4], the “% Protection P” value stood at 34.72%. Further, in experiment [5], the “AP-1 inhibition @ 1 uM” value stood at 41.43.

In the case of `COc1ccc(C(=O)c2cc(-c3ccccc3)c(N3CCOCC3)s2)cc1` [Example 44, (4-Methoxy-phenyl)-(5-morpholin-4-yl-4-phenyl-thiophene-2-yl)-methanone], the inhibition at 1 µM in experiment [3] is 14.9%; in experiment [5], 55.4%. For the same compound, in experiment [4], the inhibition in vivo at 50 mg/kg was found to be 66.7%.

In the case of `CC(=O)c1ccc(-n2c(-c3cc(-c4ccc(S(C)(=O)=O)cc4)c(N4CCOCC4)s3)nc3ccccc3c2=O)cc1` [Example 317, 2-[4-(4-Methanesulphonyl-phenyl)-5-morpholin-4-yl-thiophen-2-yl]-3-(4-acetyl-phenyl)-3H-quinazolin-4-one], the inhibition at 1 µM turned out to be 46% in experiment [3] and 31% in experiment [5]. Moreover, the inhibition in vivo at 50 mg/kg in experiment [4] stood at 73%.

For the compound `O=C(c1ccncc1)c1sc(N2CCN(C(=O)c3ccco3)CC2)nc1-c1ccco1` [Example 377, {2-[4-(Furan-2-carbonyl)-piperazin-1-yl]-4-furan-2-yl-thiazol-5-yl}-pyridin-4-yl-methanone], the inhibition at 1 µM in experiment [3] was -7.88%; in experiment [5], 4.84%. In addition, in experiment [4], the inhibition in vivo at 50 mg/kg turned out to be 32%.

For `CSc1ccc(-c2cc(-c3nc4ccccc4c(=O)n3-c3ccccc3C)sc2N2CCOCC2)cc1` [Example 282, 2-[4-(4-Methylsulfanylphenyl)-5-morpholin-4-yl-thiophen-2-yl]-3-0-tolyl-3H-quinazolin-4-one], the “NFkB inhibition @ 1 uM” value in experiment [3] was determined as 53. Moreover, the “% Protection P” value in experiment [4] turned out to be 51%. The “AP-1 inhibition @ 1 uM” value in experiment [5] is given as −18.

Turning to `CCOC(=O)Nc1nc(C)c(C(=O)c2sc(NC(=O)OCC)nc2C)s1` [Example 124, Diethyl[carbonyl-bis(4-methyl-1,3-thiazole-5,2-diyl)]biscarbamate], the inhibition at 1 µM in experiment [3] was 20.1%; in experiment [5], 71.6%. Also, in experiment [4], the inhibition in vivo at 50 mg/kg came to 65.7%.

Turning to `CS(=O)(=O)c1ccc(-c2cc(C(=O)c3ccncc3)sc2N2CCOCC2)cc1` [Example 63, [4-(4-Methanesulfonyl-phenyl)-5-morpholin-4-yl-thiophene-2-yl]-pyridin-4-yl-methanone], the inhibition at 1 µM in experiment [3] is 10.5%; in experiment [5], 5.71%. Further, the inhibition in vivo at 50 mg/kg in experiment [4] was found to be 50%.

Turning to `Cc1ccc(C(=O)c2cc(-c3ccncc3)c(N3CCOCC3)s2)cc1` [Example 103, (5-Morpholin-4-yl-4-pyridin-4-yl-thiophene-2-yl)-p-tolyl-methanone], the values for the inhibition at 1 µM in experiment [3] and in experiment [5] were 10.3% and 4.35%, respectively. Also, the inhibition in vivo at 50 mg/kg in experiment [4] was -30.8%.

As for “Bis-[4-(4-chloro-phenyl)-5-morpholin-4-yl-thiophen-2-yl]-methanone [Example 114]”, the “NFkB inhibition @ 1 uM” value in experiment [3] was −39.23. For the same compound, the “% Protection P” value in experiment [4] is on record as 30.55%. Moreover, the “AP-1 inhibition @ 1 uM” value in experiment [5] is −70.59.

For the compound `Cc1c(OCC(F)(F)F)ccnc1-c1sc(Nc2ccccc2)nc1N` [Example 331, 5-[3-Methyl-4-(2,2,2-trifluoro-ethoxy)-pyridin-2-yl]-N2-phenyl-thiazole-2,4-diamine], the inhibition at 1 µM is -10.6% in experiment [3] and 27.4% in experiment [5]. Also, the inhibition in vivo at 50 mg/kg in experiment [4] is 62.3%.

For the compound “Bis-[2-(2-furoyl-amino)-4-benzayl-thiazole-5-yl]-methanone [Example 136]”, in experiment [3], the “NFkB inhibition @ 1 uM” value worked out at 44.46. Moreover, in experiment [4], the “% Protection P” value was determined as 45.13%. Further, the “AP-1 inhibition @ 1 uM” value in experiment [5] was 32.23.

`Cc1ccc(C(=O)c2sc(N3CCN(C(=O)c4ccco4)CC3)nc2-c2ccco2)cc1` [Example 371, {2-[4-(Furan-2-carbonyl)-piperazin-1-yl]-4-furan-2-yl-thiazol-5-yl}-p-tolyl-methanone]: the results for the inhibition at 1 µM in experiment [3] and in experiment [5] were 10.4% and 25.6%, respectively. In experiment [4], the inhibition in vivo at 50 mg/kg came out at 34%.

For `O=C(CCl)Nc1ccccc1C(=O)O` [Example 139, 2-(2-Chloroacetylamino) benzoic acid], the values for the inhibition at 1 µM in experiment [3] and in experiment [5] were 62.6% and 74.4%, respectively. Further, in experiment [4], the inhibition in vivo at 50 mg/kg worked out at 69.6%.

As to “N-{4-[4-(4-Chloro-phenyl)-5-morpholin-4-yl-thiophen-2-carbonyl]-phenyl}acetamide [Example 85]”, the “NFkB inhibition @ 1 uM” value in experiment [3] is given as −17.34. In addition, in experiment [4], the “% Protection P” value is 20%. In addition, the “AP-1 inhibition @ 1 uM” value in experiment [5] is recorded as 22.58.

As for `O=C(c1ccncc1)c1cc(-c2ccccc2)c(N2CCOCC2)s1` [Example 51, (5-Morpholin-4-yl-4-phenyl-thiophene-2-yl)-pyridine-4-yl-methanone], the values for the inhibition at 1 µM in experiment [3] and in experiment [5] were 8.36% and 16.8%, respectively. For the same compound, in experiment [4], the inhibition in vivo at 50 mg/kg was 39.6%.
